Results reported in the supplement of paper PMC11061612.

Columns and labels:
[1] = compound: NC1(c2ccc(-c3nc4ccn5c(=O)[nH]nc5c4cc3-c3ccccc3)cc2)CCC1 [MK-2206]; conditions: max 10 µM
Method in brief: (§1)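 After 24 hours at 37°C and 5% CO2 in 1536-well plates holding 7.5 μl of DMEM/F12 or RPMI with 10% FBS, cancer cell lines were dosed for 72 hours, with final DMSO typically 0.2%. Viability came from CellTiter-Glo 2.0 luminescence, scaled between the means of blank wells and DMSO wells. A non-linear mixed effects model fitted a two-parameter logistic curve to each dose response to give the single-agent IC50.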

[2] = compound: Cn1cnc2c(F)c(Nc3ccc(Br)cc3Cl)c(C(=O)NOCCO)cc21 [Selumetinib]; conditions: max 10 µM
Method in brief: as §1

[3] = compound: C1CN(CCC1(C(=O)N[C@@H](CCO)C2=CC=C(C=C2)Cl)N)C3=NC=NC4=C3C=CN4 [AZD5363]; conditions: max 10 µM
Method in brief: as §1

[4] = compound: COc1cc(Nc2ncc3c(n2)-c2ccc(Cl)cc2C(c2c(F)cccc2OC)=NC3)ccc1C(=O)O [Alisertib]; conditions: max 10 µM
Method in brief: as §1

[5] = compound: C[C@@H]1COCCN1C2=NC(=NC(=C2)C3(CC3)[S@](=N)(=O)C)C4=C5C=CNC5=NC=C4 [AZD6738]; conditions: max 10 µM
Method in brief: as §1

[6] = compound: O=C(Nc1ccc2[nH]nc(-c3ccncc3)c2c1)[C@@H]1CCN(CC(=O)N2CCN(c3ccc(-c4ncccn4)cc3)CC2)C1; conditions: max 5 µM
Method in brief: as §1

[7] = compound: CC1=CN2[C@@H](C1)C=NC3=CC(=C(C=C3C2=O)OC)OCCCCCOC4=C(C=C5C(=C4)N=C[C@@H]6CC(=CN6C5=O)C)OC [SG3199]; conditions: max 0.001 µM
Method in brief: as §1

[8] = compound: CN(CC[C@H](CSC1=CC=CC=C1)NC2=C(C=C(C=C2)S(=O)(=O)NC(=O)C3=CC=C(C=C3)N4CCC(CC4)[C@H](C5=CC=CC=C5C6=CC=C(C=C6)Cl)O)S(=O)(=O)C(F)(F)F)CCO [AZD4320]; conditions: max 1 µM
Method in brief: as §1

[9] = compound: CS(=O)(=O)CCNCc1ccc(-c2ccc3ncnc(Nc4ccc(OCc5cccc(F)c5)c(Cl)c4)c3c2)o1 [Lapatinib]; conditions: max 10 µM
Method in brief: as §1

[10] = compound: O=C(c1cc(Cc2n[nH]c(=O)c3ccccc23)ccc1F)N1CCN(C(=O)C2CC2)CC1 [Olaparib]; conditions: max 10 µM
Method in brief: as §1

[11] = compound: O=c1[nH]cc(F)c(=O)[nH]1 [5-Fluorouracil]; conditions: max 20 µM
Method in brief: as §1

[12] = compound: C1CC(C1)(C(=O)[O-])C(=O)[O-].N.N.[Pt+2] [Carboplatin]; conditions: max 10 µM
Method in brief: as §1

[13] = compound: CC(=O)O[C@H]1C(=O)[C@@]2(C)[C@H]([C@H](OC(=O)c3ccccc3)[C@]3(O)C[C@H](OC(=O)[C@H](O)[C@@H](NC(=O)c4ccccc4)c4ccccc4)C(C)=C1C3(C)C)[C@]1(OC(C)=O)CO[C@@H]1C[C@@H]2O [Paclitaxel]; conditions: max 3 µM
Method in brief: as §1

[14] = compound: C=CCn1c(=O)c2cnc(Nc3ccc(N4CCN(C)CC4)cc3)nc2n1-c1cccc(C(C)(C)O)n1 [AZD1775]; conditions: max 3 µM
Method in brief: as §1

[15] = compound: Nc1ccn([C@@H]2O[C@H](CO)[C@@H](O)C2(F)F)c(=O)n1 [Gemcitabine]; conditions: max 0.3 µM
Method in brief: as §1

[16] = compound: Cc1nc(-c2cn3c(n2)-c2ccc(-c4cnn(C(C)(C)C(N)=O)c4)cc2OCC3)n(C(C)C)n1 [Taselisib]; conditions: max 10 µM
Method in brief: as §1

[17] = compound: CC1(C)CCC(CN2CCN(c3ccc(C(=O)NS(=O)(=O)c4ccc(NCC5CCOCC5)c([N+](=O)[O-])c4)c(Oc4cnc5[nH]ccc5c4)c3)CC2)=C(c2ccc(Cl)cc2)C1 [Venetoclax]; conditions: max 1 µM
Method in brief: as §1

[18] = compound: COc1cc2ncnc(Nc3ccc(F)c(Cl)c3)c2cc1OCCCN1CCOCC1 [Gefitinib]; conditions: max 10 µM
Method in brief: as §1

[19] = compound: Cc1cc2ncnn2cc1Nc1ncc2c(n1)n(C1CCOCC1)c(=O)n2C [AZD7648]; conditions: max 10 µM
Method in brief: as §1

[20] = compound: CC(=O)c1c(C)c2cnc(Nc3ccc(N4CCNCC4)cn3)nc2n(C2CCCC2)c1=O [Palbociclib]; conditions: max 10 µM
Method in brief: as §1

[21] = compound: C[C@@H](Oc1cc(-c2cnn(C3CCNCC3)c2)cnc1N)c1c(Cl)ccc(F)c1Cl [Crizotinib]; conditions: max 10 µM
Method in brief: as §1

[22] = compound: CC(C)n1c(=O)n(C)c2cnc3cc(F)c(-c4ccc(OCCCN5CCCCC5)nc4)cc3c21 [AZD1390]; conditions: max 0.3 µM
Method in brief: as §1

[23] = compound: C[C@@H](c1ccc2nccn2c1)n1nnc2ncc(-c3cnn(C)c3)nc21 [Savolitinib]; conditions: max 1 µM
Method in brief: as §1

[24] = compound: C[C@@H](Nc1cc(F)cc(F)c1)c1cc(C(=O)N(C)C)cc2c(=O)cc(N3CCOCC3)oc12 [AZD8186]; conditions: max 10 µM
Method in brief: as §1

[25] = compound: COc1nnc2ccc(N3CCC(c4ccc(OCCN5CCN(C)C(=O)[C@H]5C)cc4)CC3)nn12 [AZD5153]; conditions: max 1 µM
Method in brief: as §1

[26] = compound: COc1cc([C@@H]2c3cc4c(cc3[C@@H](O[C@@H]3O[C@@H]5CO[C@@H](C)O[C@H]5[C@H](O)[C@H]3O)[C@H]3COC(=O)[C@H]23)OCO4)cc(OC)c1O [Etoposide]; conditions: max 10 µM
Method in brief: as §1

[27] = compound: N#Cc1cnc(Nc2cc(NC[C@H]3CNCCO3)c(C(F)(F)F)cn2)cn1 [SRA737]; conditions: max 10 µM
Method in brief: as §1

[28] = compound: COc1cccc(OCCCN)c1-c1cc(Nc2cnc(C#N)cn2)n[nH]1 [Prexasertib]; conditions: max 1 µM
Method in brief: as §1

[29] = compound: CCc1c2c(nc3ccc(O)cc13)-c1cc3c(c(=O)n1C2)COC(=O)[C@]3(O)CC [SN-38]; conditions: max 0.3 µM
Method in brief: as §1

[30] = compound: Cc1c2c(nn1C)CSCc1cc(n(C)n1)CSc1cc(c3ccccc3c1)OCCCc1c(C(=O)O)n(C)c3c-2c(Cl)ccc13 [AZD5991]; conditions: max 1 µM
Method in brief: as §1

[31] = compound: COc1cccc2c1C(=O)c1c(O)c3c(c(O)c1C2=O)C[C@@](O)(C(=O)CO)C[C@@H]3O[C@H]1C[C@H](N)[C@H](O)[C@H](C)O1 [Doxorubicin]; conditions: max 1 µM
Method in brief: as §1

[32] = compound: CN(C)CCCOc1ccc(-c2ccc3ncc4c(c3c2)n(C2CCOCC2)c(=O)n4C)cn1 [AZD0156]; conditions: max 3 µM
Method in brief: as §1

[33] = compound: CCN(CCO)CCCOc1ccc2c(Nc3cc(CC(=O)Nc4cccc(F)c4)[nH]n3)ncnc2c1 [AZD2811]; conditions: max 1 µM
Method in brief: as §1

[34] = compound: CC1=C(C(=CC=C1)Cl)NC(=O)C2=CN=C(S2)NC3=CC(=NC(=N3)C)N4CCN(CC4)CCO [Dasatinib]; conditions: max 2 µM
Method in brief: as §1

[35] = compound: CC(=O)Nc1cccc(-n2c(=O)n(C3CC3)c(=O)c3c(Nc4ccc(I)cc4F)n(C)c(=O)c(C)c32)c1 [Trametinib]; conditions: max 1 µM
Method in brief: as §1

| Cell Line | IC50, cell viability 72 h [1] | IC50, cell viability 72 h [2] | IC50, cell viability 72 h [3] | IC50, cell viability 72 h [4] | IC50, cell viability 72 h [5] | IC50, cell viability 72 h [6] | IC50, cell viability 72 h [7] | IC50, cell viability 72 h [8] | IC50, cell viability 72 h [9] | IC50, cell viability 72 h [10] | IC50, cell viability 72 h [11] | IC50, cell viability 72 h [12] | IC50, cell viability 72 h [13] | IC50, cell viability 72 h [14] | IC50, cell viability 72 h [15] | IC50, cell viability 72 h [16] | IC50, cell viability 72 h [17] | IC50, cell viability 72 h [18] | IC50, cell viability 72 h [19] | IC50, cell viability 72 h [20] | IC50, cell viability 72 h [21] | IC50, cell viability 72 h [22] | IC50, cell viability 72 h [23] | IC50, cell viability 72 h [24] | IC50, cell viability 72 h [25] | IC50, cell viability 72 h [26] | IC50, cell viability 72 h [27] | IC50, cell viability 72 h [28] | IC50, cell viability 72 h [29] | IC50, cell viability 72 h [30] | IC50, cell viability 72 h [31] | IC50, cell viability 72 h [32] | IC50, cell viability 72 h [33] | IC50, cell viability 72 h [34] | IC50, cell viability 72 h [35] |
| --- | --- | --- | --- | --- | --- | --- | --- | --- | --- | --- | --- | --- | --- | --- | --- | --- | --- | --- | --- | --- | --- | --- | --- | --- | --- | --- | --- | --- | --- | --- | --- | --- | --- | --- | --- |
| LS-513 (Colorectal Carcinoma) | 2.31 µM | 0.419 µM | > 10 µM | 1.45 µM | 2.76 µM | 0.304 µM | > 0.001 µM | > 1 µM | 4.21 µM | > 10 µM | 7.25 µM | > 10 µM | 0.07 µM | 0.789 µM | 0.0282 µM | 1.3 µM | > 1 µM | > 10 µM | > 10 µM | 4.87 µM | 4.09 µM | > 0.3 µM | > 1 µM | > 10 µM | 0.334 µM | > 10 µM | 6.76 µM | 0.087 µM | 0.0426 µM | > 1 µM | > 1 µM | > 3 µM | > 1 µM | > 2 µM | 0.00366 µM |
| MDA-MB-157 (Breast Carcinoma) | > 10 µM | > 10 µM | > 10 µM | > 10 µM | 0.926 µM | > 5 µM | > 0.001 µM | > 1 µM | > 10 µM | > 10 µM | 10.6 µM | > 10 µM | 0.132 µM | 0.973 µM | 0.213 µM | > 10 µM | > 1 µM | > 10 µM | > 10 µM | > 10 µM | > 10 µM | > 0.3 µM | > 1 µM | > 10 µM | 0.398 µM | 8.86 µM | 1.23 µM | 0.01 µM | 0.0626 µM | 0.457 µM | > 1 µM | > 3 µM | > 1 µM | > 2 µM | > 1 µM |
| MDA-MB-231 (Breast Carcinoma) | > 10 µM | 9.41 µM | > 10 µM | > 10 µM | 9.53 µM | 1.91 µM | > 0.001 µM | > 1 µM | > 10 µM | > 10 µM | > 20 µM | > 10 µM | 0.456 µM | > 3 µM | 0.184 µM | > 10 µM | > 1 µM | > 10 µM | > 10 µM | > 10 µM | > 10 µM | > 0.3 µM | > 1 µM | > 10 µM | 0.374 µM | > 10 µM | > 10 µM | 0.173 µM | 0.109 µM | > 1 µM | 0.592 µM | > 3 µM | > 1 µM | 1.9 µM | 0.204 µM |
| MFH-ino (Other Solid Carcinomas) | > 10 µM | > 10 µM | > 10 µM | > 10 µM | > 10 µM | 3.67 µM | > 0.001 µM | > 1 µM | > 10 µM | > 10 µM | > 20 µM | > 10 µM | 1.27 µM | > 3 µM | 0.0717 µM | > 10 µM | > 1 µM | > 10 µM | > 10 µM | > 10 µM | > 10 µM | > 0.3 µM | > 1 µM | > 10 µM | > 1 µM | > 10 µM | > 10 µM | > 1 µM | 0.0398 µM | > 1 µM | > 1 µM | > 3 µM | > 1 µM | > 2 µM | > 1 µM |
| NALM-6 (B-Lymphoblastic Leukemia) | 0.816 µM | > 10 µM | 1.37 µM | 0.238 µM | 1.05 µM | > 5 µM | > 0.001 µM | 0.146 µM | 8.22 µM | > 10 µM | > 20 µM | > 10 µM | 0.00565 µM | 0.509 µM | 0.00363 µM | 0.293 µM | 0.38 µM | > 10 µM | > 10 µM | 1.41 µM | 1.17 µM | > 0.3 µM | > 1 µM | 1.22 µM | 0.0319 µM | 0.302 µM | 2.31 µM | 0.0117 µM | 0.00589 µM | > 1 µM | 0.106 µM | > 3 µM | 0.057 µM | 1.14 µM | > 1 µM |
